According to paper PMC9284491 (Nature Communications, 2022):

System: ER activity signature (87 genes)
Assay: ER activation score by GSVA of RNA-seq from paired tumor biopsies
Assay type: in vivo, human
Description: Total RNA was extracted from FFPE tissue (slides of 10 μm). A targeted-enrichment RNA-seq approach was applied utilizing KAPA RNA HyperPrep and whole exome […] kits (Roche) followed by the generation of sequencing reads with NextSeq 500 (Illumina). RNA-seq FASTQ files were processed with STAR aligner and Cufflinks to generate gene-level fragments per kilobase of transcript per million mapped reads (FPKM)[34],[47],[48]. Those FPKM values were converted to the gene-level estimation of expression in transcripts per million (TPM). The TPM data were then quantile-normalized and log2-transformed. GSVA was employed to calculate the ER activation score by using the ER activity signature (87 genes)[31]. […] Results were analyzed using descriptive statistics.

## O=C(O)c1ccc2c(c1)CCCC(c1ccc(Cl)cc1Cl)=C2c1ccc(O[C@H]2CCN(CCCF)C2)cc1 [amcenestrant, 6-(2,4-Dichlorophenyl)−5-[4-[(3S)−1-(3-fluoropropyl)pyrrolidin-3-yl]oxyphenyl]−8,9-dihydro-7H-benzo[7]annulene-2-carboxylic acid]
Cycle 2, day 28, n = 5, range −1.1 to +0.4
  ER activation score by GSVA, median change from screening: −0.4
Patients who showed clinical benefit, n = 4, range −1.1 to 0
  ER activation score, median change from screening: −0.6
The patient with no clinical benefit
  ER activation score, change from screening: +0.4
